Values joined by “and” are separate entries in the source; they are usually repeats but may differ in a detail not shown here. Equal values may be shown once. Where a name gives a salt, the structure may show the parent alone.
System: norepinephrin release in the rat prefrontal cortex
Test: Microdialysis: norepinephrine release in prefrontal cortex after I.P. administration
Format: in vivo
Settings: for NOREPINEPHRIN in dialysate, individual animals / NOREPINEPHRIN in dialysate, MEAN: SON-117 0.1 mg/kg I.P.; for NOREPINEPHRIN in dialysate, individual animals: hydrochloride, 0.1 mg/kg; for NOREPINEPHRIN (% of respective basal) MEAN / NE concentrations in prefrontal cortex, significant slight increase: SON-117 0.3 mg/kg I.P.; for NOREPINEPHRIN (% of respective basal) MEAN: n = 8
Description: The aim of the study was to evaluate, using microdialysis, the effects of an intraperitoneal (I.P.) administration in rats of three different doses of SON-117 on dopamine and its metabolites, serotonin and its metabolite (5-HIAA), and norepinephrine levels in prefrontal cortex.
Thirty-two adult male Wistar rats were used for the whole study (4 groups of eight animals planned for the study, Table 1).
Surgery was performed on rats weighing about 300 g at the beginning of the experiments. Rats were anaesthetized with Ketamine (50 mg/kg) & Xylazine (15 mg/kg) by intramuscular administration. The animals were placed in a stereotaxic apparatus in the flat-skull position at a constant setting of −3.3 mm between ear bars and the incisor bar. The animals were treated with a local anesthesic (xylocaine 1%, Astra Zeneca) and an analgesic (Temgesic, from Schering Plough, 0.05 mg/kg, s.c.). A rostrocaudal midline incision was made with a lancet to expose the dorsal skull surface. The “stereotaxic zero” was defined by the Bregma in accordance with Paxinos and Watson's atlas (1986). A hole was drilled in the skull with a drill and the meninges were pierced with a sterile needle to implant a CMA12 guide cannula which later received the dialysis probe.
Coordinates used for implanting guide cannula in prefrontal cortex from Bregma were anteroposterior 3.7 mm, mediolateral 0.8 mm, and dorsoventral −2 mm (top of the probe was at −5 mm). The guide cannula was fixed to the skull with two stainless steel screws (1.88 mm outside diameter) anchored. An application of dental cement was added. A plastic collar allowed each animal to be tethered to a Swivel assembly of the CMA 120 awake animal system. Following surgery, rats were kept in individual cages and allowed to recover for a minimum of 3-5 days before the experimentation. The rats were handled and put in plastic bowl for 10 min at least every day to habituate the animals to their new environment for the dialysis. An I.P. administration with saline was also performed every day.
Dialysis probes (CMA12/3 mm, membrane, 20 kD cut-off, Carnegie Medicine, Stockholm, Sweden), were carefully washed before inserting into the guide cannula. The wash was performed with the artificial cerebrospinal fluid (aCSF) medium (NaCl 147 mM, KCl 2.7 mM, CaCl2 1.2 mM, MgCl2 0.85 mM) at room temperature. The dialysis system was then equilibrated at 20° C. at a perfusion rate of 1 μl/min with a Carnegie pump (CMA100). All catheters (FEP tubing, internal volume of 1.2 μl/10 cm, and tubing adaptors) used for microdialysis were treated in the same conditions.
The probes duly prepared were inserted into the guide cannula and the CMA120 Swivel assembly secured to the animal using a plastic collar. Flow through the dialysis probe with aCSF was maintained at a rate of 1 μl/min during the whole experimentation. The first four fractions (corresponding to 2 hours) were discarded to avoid the effects of parenchymal disturbance and to ensure that an approximate steady-state level was reached. Fractions were then collected over a period of 8.5 h during which time the animals remained quiet. The dialysates were automatically collected with an autosampler (microfraction collector CMA 140, Carnegie Medicin) and stored at −80° C. until analysis. […] Perfusion was then maintained for 7 hours with aCSF. The dialysates (30 μl) were collected into 300 μl vials, transferred into dry ice and then kept frozen (−80° C.) until analysis. Frozen samples were shipped to a partner for analysis. At the end of the microdialysis study, a PBS with colored ink was perfused through the probe in order to visualize the dialyzed area.
Catecholamine assay: Concentrations of dopamine, DOPAC, HVA, 5-HIAA, 5-HT, and norepinephrin were determined for each sample by HPLC coupled with electrochemical detection. […]

With `Cc1nnc(-c2cc3c(OC[C@@H](O)CN4CCC(c5ccc(Cl)c(Cl)c5)CC4)cccc3o2)o1` [SON-117, (S)-1-(4-(3,4-dichlorophenyl)piperidino)-3-(2-(5-methyl-1,3,4-oxadiazol-2-yl)benzo(b)furan-4-yloxy)-2-propanol hydrochloride] the “NOREPINEPHRIN in dialysate, individual animals” value (T1 h 30-T2 h) was 62.36 % of respective basal and 99.69 % of respective basal and 70.34 % of respective basal and 106.16 % of respective basal and 81.71 % of respective basal and 48.44 % of respective basal and 107.26 % of respective basal and 74.26 % of respective basal, the “NOREPINEPHRIN in dialysate, MEAN” value (T1 h-T1 h 30) was 91.81 % of respective basal and the “NOREPINEPHRIN in dialysate, individual animals” value (T1 h-T1 h 30) was 76.18 % of respective basal and 103.4 % of respective basal and 76.89 % of respective basal and 121.08 % of respective basal and 91.95 % of respective basal and 79.30 % of respective basal and 109.47 % of respective basal and 76.21 % of respective basal. For the same compound, the “NOREPINEPHRIN in dialysate, MEAN” value (T2 h 30-T3 h) was 79.52 % of respective basal, the “NOREPINEPHRIN in dialysate, individual animals” value (T2 h 30-T3 h) was 73.33 % of respective basal and 70.54 % of respective basal and 58.97 % of respective basal and 74.27 % of respective basal and 104.33 % of respective basal and 81.47 % of respective basal and 116.2 % of respective basal and 57.05 % of respective basal and the “NOREPINEPHRIN in dialysate, MEAN” value (T2 h-T2 h 30) was 78.83 % of respective basal. For the same compound, the “NOREPINEPHRIN in dialysate, individual animals” value (T2 h-T2 h 30) was 66.69 % of respective basal and 98.72 % of respective basal and 65.78 % of respective basal and 70.31 % of respective basal and 92.44 % of respective basal and 49.48 % of respective basal and 109.29 % of respective basal and 77.91 % of respective basal, the “NOREPINEPHRIN in dialysate, MEAN” value (T3 h 30-T4 h) was 86.32 % of respective basal and the “NOREPINEPHRIN in dialysate, individual animals” value (T3 h 30-T4 h) was 91.02 % of respective basal and 105.19 % of respective basal and 59.70 % of respective basal and 76.69 % of respective basal and 123.13 % of respective basal and 96.82 % of respective basal and 105.05 % of respective basal and 32.98 % of respective basal. For the same compound, the “NOREPINEPHRIN in dialysate, MEAN” value (T3 h-T3 h 30) was 86.82 % of respective basal, the “NOREPINEPHRIN in dialysate, individual animals” value (T3 h-T3 h 30) was 152.99 % of respective basal and 92.11 % of respective basal and 58.83 % of respective basal and 77.12 % of respective basal and 91.45 % of respective basal and 56.94 % of respective basal and 113.71 % of respective basal and 51.43 % of respective basal and the “NOREPINEPHRIN in dialysate, MEAN” value (T4 h 30-T5 h) was 109.54 % of respective basal. For the same compound, the “NOREPINEPHRIN in dialysate, individual animals” value (T4 h 30-T5 h) was 204.20 % of respective basal and 144.74 % of respective basal and 38.63 % of respective basal and 124.67 % of respective basal and 96.8 % of respective basal and 102.84 % of respective basal and 104.62 % of respective basal and 59.86 % of respective basal, the “NOREPINEPHRIN in dialysate, MEAN” value (T4 h-T4 h 30) was 111.29 % of respective basal and the “NOREPINEPHRIN in dialysate, individual animals” value (T4 h-T4 h 30) was 220.91 % of respective basal and 88.73 % of respective basal and 75.17 % of respective basal and 90.11 % of respective basal and 112.61 % of respective basal and 91.91 % of respective basal and 116.00 % of respective basal and 94.90 % of respective basal. For the same compound, the “NOREPINEPHRIN in dialysate, MEAN” value (T5 h 30-T6 h) was 93.44 % of respective basal, the “NOREPINEPHRIN in dialysate, individual animals” value (T5 h 30-T6 h) was 159.66 % of respective basal and 111.49 % of respective basal and 76.32 % of respective basal and 79.52 % of respective basal and 94.09 % of respective basal and 72.17 % of respective basal and 101.35 % of respective basal and 52.95 % of respective basal and the “NOREPINEPHRIN in dialysate, MEAN” value (T5 h-T5 h 30) was 94.69 % of respective basal. The “NOREPINEPHRIN in dialysate, individual animals” value (T5 h-T5 h 30) was 188.91 % of respective basal and 96.57 % of respective basal and 69.39 % of respective basal and 78.76 % of respective basal and 94.15 % of respective basal and 68.42 % of respective basal and 102.42 % of respective basal and 58.91 % of respective basal, the “NOREPINEPHRIN in dialysate, MEAN” value (T6 h 30-T7 h) was 117.60 % of respective basal and the “NOREPINEPHRIN in dialysate, MEAN” value (T6 h-T6 h 30) was 89.68 % of respective basal. The “NOREPINEPHRIN in dialysate, individual animals” value (T6 h-T6 h 30) was 196.16 % of respective basal and 73.01 % of respective basal and 27.50 % of respective basal and 79.85 % of respective basal and 96.77 % of respective basal and 85.56 % of respective basal, the “NOREPINEPHRIN in dialysate, MEAN” value (T-30 min-T0 (pre-dose)) was 91.33 % of respective basal and the “NOREPINEPHRIN in dialysate, MEAN” value (T-1 h 30-T-1 h (pre-dose)) was 109.41 % of respective basal. The “NOREPINEPHRIN in dialysate, MEAN” value (T-1 h-T-30 min (pre-dose)) was 99.26 % of respective basal, the “levels of NE compared to the citalopram treated group (two-way ANOVA, significant)” value (SON-117 0.1 mg/kg vs citalopram 10 mg/kg, at 4.5 h and 7 h) was “higher” and the “NOREPINEPHRIN (% of respective basal) MEAN” value (T0-T30 min) was 109.06 % of respective basal. The “NOREPINEPHRIN (% of respective basal) MEAN” value (T30-T1 h) was 104.15 % of respective basal, the “NOREPINEPHRIN (% of respective basal) MEAN” value (T1 h 30-T2 h) was 95.77 % of respective basal and the “NOREPINEPHRIN (% of respective basal) MEAN” value (T1 h-T1 h 30) was 100.55 % of respective basal. The “NOREPINEPHRIN (% of respective basal) MEAN” value (T2 h 30-T3 h) was 106.82 % of respective basal, the “NOREPINEPHRIN (% of respective basal) MEAN” value (T2 h-T2 h 30) was 100.26 % of respective basal and the “NOREPINEPHRIN (% of respective basal) MEAN” value (T3 h 30-T4 h) was 128.69 % of respective basal. For the same compound, the “NOREPINEPHRIN (% of respective basal) MEAN” value (T3 h-T3 h 30) was 116.32 % of respective basal, the “NOREPINEPHRIN (% of respective basal) MEAN” value (T4 h 30-T5 h) was 125.81 % of respective basal and the “NOREPINEPHRIN (% of respective basal) MEAN” value (T4 h-T4 h 30) was 119.37 % of respective basal. The “NOREPINEPHRIN (% of respective basal) MEAN” value (T5 h 30-T6 h) was 135.41 % of respective basal, the “NOREPINEPHRIN (% of respective basal) MEAN” value (T5 h-T5 h 30) was 124.93 % of respective basal and the “NOREPINEPHRIN (% of respective basal) MEAN” value (T6 h 30-T7 h) was 140.96 % of respective basal. For the same compound, the “NOREPINEPHRIN (% of respective basal) MEAN” value (T6 h-T6 h 30) was 137.68 % of respective basal, the “NOREPINEPHRIN (% of respective basal) MEAN” value (T-30 min-T0 (before administration)) was 94.72 % of respective basal and the “NOREPINEPHRIN (% of respective basal) MEAN” value (T-1 h 30-T-1 h (before administration)) was 105.37 % of respective basal. The “NOREPINEPHRIN (% of respective basal) MEAN” value (T-1 h-T-30 min (before administration)) was 99.90 % of respective basal, the “NE concentrations in prefrontal cortex, significant slight increase” value (at 3.5 h) was 117% and the “NE concentrations in prefrontal cortex, significant slight increase” value (from 4.5 h to 7 h) was 128%. For the same compound, the “levels of NE compared to the citalopram treated group (two-way ANOVA, significant)” value (SON-117 0.3 mg/kg vs citalopram 10 mg/kg, at 3.5 h, 4 h, 4.5 h, 5 h, 5.5 h, 6 h and 7 h) was “higher”, the “NE dialysate levels vs mean pre-administration value” (SON-117 3 mg/kg IP) was “no statistically significant differences” and the “levels of NE compared to the citalopram treated group (two-way ANOVA, significant)” value (SON-117 3 mg/kg vs citalopram 10 mg/kg, at 1.5 h and 3.5 h) was “higher”. For the same compound, the “release of NE, maximum increase” value (SON-117, three doses tested, 7 h after administration) was 129%.
